# Experimental data from ChEMBL document CHEMBL1201862, “PubChem BioAssay data set” (2004).
#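 Compound exposure: 48 hours, 5 concentrations, 96-well plates. Here, GI50 denotes the concentration required for 50% inhibition of growth.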 Calls of active or inactive are those of the source. No stated cut-off is given here; in the data, active = GI50 up to about 1.1 µM and inactive = higher.
# Tests used:
# Assay in all cases: growth of human tumour cells (NCI), 48 h
# [1] = tested on: MOLT-4
# [2] = tested on: HL-60
# [3] = tested on: 786-0
# [4] = tested on: OVCAR-4
# [5] = tested on: NCI/ADR-RES
# [6] = tested on: PC-3
# [7] = tested on: NCI-H460
# [8] = tested on: A498
# [9] = tested on: HCT-116
# [10] = tested on: SNB-78
# [11] = tested on: Malme-3M
# [12] = tested on: EKVX
# [13] = tested on: HOP-18
# [14] = tested on: OVCAR-5
# [15] = tested on: UO-31
# [16] = tested on: HT-29
# [17] = tested on: BT-549
# [18] = tested on: RPMI-8226
# [19] = tested on: KM-20L2
# [20] = tested on: CCRF-CEM
# [21] = tested on: Hs-578T
# [22] = tested on: OVCAR-3
# [23] = tested on: LXFL 529
# [24] = tested on: SW-620
# [25] = tested on: NCI-H522
# [26] = tested on: SK-MEL-2
# [27] = tested on: MCF7
# [28] = tested on: LOX IMVI
# [29] = tested on: M14
# [30] = tested on: DMS-114
# [31] = tested on: HCT-15
# [32] = tested on: A549
# [33] = tested on: DMS-273
# [34] = tested on: COLO 205
# [35] = tested on: SK-OV-3
# [36] = tested on: K562
# [37] = tested on: RXF 393
# [38] = tested on: SK-MEL-28
# [39] = tested on: NCI-H23
# [40] = tested on: HOP-62
# [41] = tested on: SK-MEL-5
# [42] = tested on: HOP-92
# [43] = tested on: ACHN
# [44] = tested on: U-251
# [45] = tested on: OVCAR-8
# [46] = tested on: SNB-75
# [47] = tested on: DLD-1
# [48] = tested on: SF-268
# [49] = tested on: SN12C
# [50] = tested on: SF-295
# [51] = tested on: IGROV-1
# [52] = tested on: HCC 2998
# [53] = tested on: M19-MEL
# [54] = tested on: SF-539
# [55] = tested on: NCI-H226
# [56] = tested on: TK-10
# [57] = tested on: UACC-62
# [58] = tested on: UACC-257
# [59] = tested on: KM12
# [60] = tested on: SNB-19
# [61] = tested on: CAKI-1
smiles,measurement,setting,value
COc1cc(CNc2ccc(SC)cc2)cc(OC)c1OC,GI50,[1],5.6 µM (inactive)
same,GI50,[2],2.55 µM (inactive)
same,GI50,[3],8.2 µM (inactive)
same,GI50,[4],27 µM (inactive)
same,GI50,[5],3.15 µM (inactive)
same,GI50,[6],6.95 µM (inactive)
same,GI50,[7],4.38 µM (inactive)
same,GI50,[8],13.6 µM (inactive)
same,GI50,[9],4.71 µM (inactive)
same,GI50,[10],53.8 µM (inactive)
same,GI50,[11],7.29 µM (inactive)
same,GI50,[12],27.1 µM (inactive)
same,GI50,[13],22.6 µM (inactive)
same,GI50,[14],17.2 µM (inactive)
same,GI50,[15],10.9 µM (inactive)
same,GI50,[16],3.35 µM (inactive)
same,GI50,[17],1.63 µM (inactive)
same,GI50,[18],8.57 µM (inactive)
same,GI50,[19],4.31 µM (inactive)
same,GI50,[20],6.65 µM (inactive)
same,GI50,[21],11 µM (inactive)
same,GI50,[22],3.68 µM (inactive)
same,GI50,[23],12.6 µM (inactive)
same,GI50,[24],3.46 µM (inactive)
same,GI50,[25],2.88 µM (inactive)
same,GI50,[26],6.27 µM (inactive)
same,GI50,[27],3.36 µM (inactive)
same,GI50,[28],5.75 µM (inactive)
same,GI50,[29],3.27 µM (inactive)
same,GI50,[30],3.37 µM (inactive)
same,GI50,[31],4.23 µM
same,GI50,[32],8.41 µM (inactive)
same,GI50,[33],4.48 µM (inactive)
same,GI50,[34],3.47 µM (inactive)
Cc1ccc(-c2cc(-c3ccco3)c(C#N)c(O)n2)cc1,GI50,[35],29.4 µM (inactive)
same,GI50,[1],> 100 µM (inactive)
same,GI50,[36],> 100 µM (inactive)
same,GI50,[37],95.1 µM (inactive)
same,GI50,[38],> 100 µM (inactive)
same,GI50,[39],> 100 µM (inactive)
same,GI50,[40],50.2 µM (inactive)
same,GI50,[2],> 100 µM (inactive)
same,GI50,[41],> 100 µM (inactive)
same,GI50,[3],> 100 µM (inactive)
same,GI50,[4],45.1 µM (inactive)
same,GI50,[42],> 100 µM (inactive)
same,GI50,[43],> 100 µM (inactive)
same,GI50,[44],82.8 µM (inactive)
same,GI50,[45],> 100 µM (inactive)
same,GI50,[7],> 100 µM (inactive)
same,GI50,[46],18.7 µM (inactive)
same,GI50,[8],> 100 µM (inactive)
same,GI50,[9],> 100 µM (inactive)
same,GI50,[10],> 100 µM (inactive)
same,GI50,[47],> 100 µM (inactive)
same,GI50,[48],> 100 µM (inactive)
same,GI50,[11],> 100 µM (inactive)
same,GI50,[49],> 100 µM (inactive)
same,GI50,[50],> 100 µM (inactive)
same,GI50,[12],> 100 µM (inactive)
same,GI50,[51],> 100 µM (inactive)
same,GI50,[52],> 100 µM (inactive)
same,GI50,[13],13.3 µM (inactive)
same,GI50,[14],> 100 µM (inactive)
same,GI50,[53],> 100 µM (inactive)
same,GI50,[54],> 100 µM (inactive)
same,GI50,[55],> 100 µM (inactive)
same,GI50,[15],> 100 µM (inactive)
same,GI50,[16],> 100 µM (inactive)
same,GI50,[18],> 100 µM (inactive)
same,GI50,[19],> 100 µM (inactive)
same,GI50,[20],> 100 µM (inactive)
same,GI50,[22],> 100 µM (inactive)
same,GI50,[56],> 100 µM (inactive)
same,GI50,[57],> 100 µM (inactive)
same,GI50,[58],> 100 µM (inactive)
same,GI50,[59],> 100 µM (inactive)
same,GI50,[23],> 100 µM (inactive)
same,GI50,[24],> 100 µM (inactive)
same,GI50,[25],> 100 µM (inactive)
same,GI50,[28],> 100 µM (inactive)
same,GI50,[29],> 100 µM (inactive)
same,GI50,[31],> 100 µM
same,GI50,[32],> 100 µM (inactive)
same,GI50,[33],> 100 µM (inactive)
same,GI50,[34],> 100 µM (inactive)
same,GI50,[60],> 100 µM (inactive)
O=S(=O)(c1cccc(N=C=S)c1)c1cccc(N=C=S)c1,GI50,[35],19.2 µM (inactive)
same,GI50,[1],4.85 µM (inactive)
same,GI50,[36],16.3 µM (inactive)
same,GI50,[37],8.11 µM (inactive)
same,GI50,[38],18.2 µM (inactive)
same,GI50,[39],17.1 µM (inactive)
same,GI50,[40],11.3 µM (inactive)
same,GI50,[2],21.7 µM (inactive)
same,GI50,[41],19.7 µM (inactive)
same,GI50,[3],16 µM (inactive)
same,GI50,[43],18.6 µM (inactive)
same,GI50,[44],18.9 µM (inactive)
same,GI50,[45],> 10 µM (inactive)
same,GI50,[7],> 10 µM (inactive)
same,GI50,[9],18.1 µM (inactive)
same,GI50,[10],30.6 µM (inactive)
same,GI50,[47],19.2 µM (inactive)
same,GI50,[48],18.2 µM (inactive)
same,GI50,[11],18.9 µM (inactive)
same,GI50,[49],22 µM (inactive)
same,GI50,[50],19.5 µM (inactive)
same,GI50,[12],> 100 µM (inactive)
same,GI50,[51],18.7 µM (inactive)
same,GI50,[52],21.8 µM (inactive)
same,GI50,[14],47 µM (inactive)
same,GI50,[53],> 10 µM (inactive)
same,GI50,[54],> 10 µM (inactive)
same,GI50,[15],28.7 µM (inactive)
same,GI50,[18],28.7 µM (inactive)
same,GI50,[19],31.5 µM (inactive)
same,GI50,[20],5.51 µM (inactive)
same,GI50,[22],11.6 µM (inactive)
same,GI50,[56],20 µM (inactive)
same,GI50,[57],19.1 µM (inactive)
same,GI50,[58],20.4 µM (inactive)
same,GI50,[59],27.5 µM (inactive)
same,GI50,[23],15.2 µM (inactive)
same,GI50,[24],> 10 µM (inactive)
same,GI50,[25],16.7 µM (inactive)
same,GI50,[26],18.5 µM (inactive)
same,GI50,[28],17.7 µM (inactive)
same,GI50,[29],11.4 µM (inactive)
same,GI50,[30],15.5 µM (inactive)
same,GI50,[31],18.3 µM
same,GI50,[32],> 100 µM (inactive)
same,GI50,[33],18.7 µM (inactive)
same,GI50,[34],19.5 µM (inactive)
same,GI50,[60],64.1 µM (inactive)
CN(C)CCNC(=O)c1cccc2c1nc(-c1ccccn1)c1ccccc12,GI50,[35],17.4 µM (inactive)
same,GI50,[1],3.87 µM (inactive)
same,GI50,[36],16.9 µM (inactive)
same,GI50,[37],14.6 µM (inactive)
same,GI50,[38],15.6 µM (inactive)
same,GI50,[39],15.7 µM (inactive)
same,GI50,[40],15.1 µM (inactive)
same,GI50,[2],16.4 µM (inactive)
same,GI50,[41],15.2 µM (inactive)
same,GI50,[3],18.9 µM (inactive)
same,GI50,[4],17.3 µM (inactive)
same,GI50,[42],18.6 µM (inactive)
same,GI50,[61],18.1 µM (inactive)
same,GI50,[43],15.5 µM (inactive)
same,GI50,[44],16.3 µM (inactive)
same,GI50,[45],16 µM (inactive)
same,GI50,[7],7.26 µM (inactive)
same,GI50,[46],21.3 µM (inactive)
same,GI50,[8],13.6 µM (inactive)
same,GI50,[9],10.3 µM (inactive)
same,GI50,[10],25.3 µM (inactive)
same,GI50,[47],11.9 µM (inactive)
same,GI50,[48],23.3 µM (inactive)
same,GI50,[49],23.9 µM (inactive)
same,GI50,[50],17.6 µM (inactive)
same,GI50,[12],22.7 µM (inactive)
same,GI50,[51],16.1 µM (inactive)
same,GI50,[52],15.7 µM (inactive)
same,GI50,[13],21.4 µM (inactive)
same,GI50,[14],14.8 µM (inactive)
same,GI50,[53],18.1 µM (inactive)
same,GI50,[54],16.4 µM (inactive)
same,GI50,[55],> 10 µM (inactive)
same,GI50,[15],10.4 µM (inactive)
same,GI50,[16],16.3 µM (inactive)
same,GI50,[20],13.5 µM (inactive)
same,GI50,[22],17.4 µM (inactive)
same,GI50,[56],> 10 µM (inactive)
same,GI50,[57],17.1 µM (inactive)
same,GI50,[58],16.7 µM (inactive)
same,GI50,[59],28.3 µM (inactive)
same,GI50,[24],11.2 µM (inactive)
same,GI50,[26],18.8 µM (inactive)
same,GI50,[28],> 10 µM (inactive)
same,GI50,[29],15.8 µM (inactive)
same,GI50,[30],18.3 µM (inactive)
same,GI50,[31],13.8 µM
same,GI50,[32],11.8 µM (inactive)
same,GI50,[33],13.5 µM (inactive)
same,GI50,[34],12.3 µM (inactive)
same,GI50,[60],30.7 µM (inactive)
